Target: T1, mAChR M1 (Homo sapiens, UniProt P11229)
T1 construct: expressed in transfected cells; host or cells: CHO-K1
T1 sequence (P11229 1-460): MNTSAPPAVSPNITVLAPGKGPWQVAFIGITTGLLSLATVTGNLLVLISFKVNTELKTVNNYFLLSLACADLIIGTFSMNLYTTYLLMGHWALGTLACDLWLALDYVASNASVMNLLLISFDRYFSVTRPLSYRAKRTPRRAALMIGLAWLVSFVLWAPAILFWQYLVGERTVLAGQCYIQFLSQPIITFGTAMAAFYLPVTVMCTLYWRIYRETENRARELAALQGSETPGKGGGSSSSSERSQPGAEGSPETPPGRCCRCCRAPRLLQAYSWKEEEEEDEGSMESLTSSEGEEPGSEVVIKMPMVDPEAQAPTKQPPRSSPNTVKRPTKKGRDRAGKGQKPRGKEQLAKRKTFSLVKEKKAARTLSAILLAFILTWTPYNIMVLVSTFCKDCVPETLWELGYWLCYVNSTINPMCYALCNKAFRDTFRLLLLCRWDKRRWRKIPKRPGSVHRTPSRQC
Assay: mAChR M1 cell-based functional assay (calcium mobilization, potentiation of EC20 acetylcholine response in CHO-K1 cells)
Settings: for Emax: CHO-K1, maximal response of curve fit or response at 30 μM test compound, as % of response to an about EC80 ACh concentration, read-out: Emax (% ACh maximum at 30 μM); for EC50: positive allosteric modulation of EC20 acetylcholine response, >10,000 estimated where no plateau in the curve
From the text: Chinese hamster ovary (CHO-K1) cells stably expressing rat (r)M1 were purchased from the American Type Culture Collection and cultured according to their indicated protocol. CHO cells stably expressing human (h)M2, hM3, and hM5 were described previously (Levey, A. I., et al., J. Neurosci. 1991, 11, 3218-3226.); hM1 and hM4 cDNAs were purchased from Missouri S&T cDNA Resource; rM4 cDNA was provided by T. I. Bonner (National Institutes of Health, Bethesda, Md.). rM2 and rM3 were cloned from a rat brain cDNA library and sequence verified. hM1, rM2, rM3, hM4, and rM4 cDNAs were used to stably transfect CHO-K1 cells purchased from the American Type Culture Collection using Lipofectamine-2000. To make stable rM2, hM2, hM4, and rM4 cell lines for use in calcium mobilization assays, these cells also were stably transfected with a chimeric G-protein (Gqi5) (provided by B. R. Conklin, University of California, San Francisco) using Lipofectamine 2000. rM1, hM1, rM3, hM3, rM5, and hM5 cells were grown in Ham's F-12 medium containing 10% heat-inactivated fetal bovine serum (FBS), 20 mM HEPES, and 50 μg/mL G418 sulfate. rM2-Gqi5, hM2Gqi5, and hM4Gqi5 cells were grown in the same medium also containing 500 μg/mL Hygromycin B. Stable rM4Gqi5 cells were grown in DMEM containing 10% heat-inactivated FBS, 20 mM HEPES, 400 μg/mL G418 sulfate, and 500 μg/mL Hygromycin B.
For high throughput measurement of agonist-evoked increases in intracellular calcium, CHO-K1 cells stably expressing muscarinic receptors were plated in growth medium lacking G418 and hygromycin at 15,000 cells/20 μL/well in Greiner 384-well black-walled, tissue culture (TC)-treated, clear-bottom plates (VWR). Cells were incubated overnight at 37° C. and 5% CO2. The next day, cells were washed using an ELX 405 (BioTek) with four washes (80 μL) of assay buffer then […], 20 μL of Fluo-4/acetoxymethyl ester (Invitrogen, Carlsbad, Calif.) prepared as a 2.3 mM stock in DMSO and mixed in a 1:1 ratio with 10% (w/v) Pluronic F-127 and diluted in assay buffer was added to the wells and the cell plates were incubated for […] at 37° C. and 5% CO2. Dye was removed by washing with the ELX 405 (four 80 μL washes of assay buffer) then aspirated to 20 μL. Compound master plates were formatted in an 11 point CRC format (1:3 dilutions) in 100% DMSO with a starting concentration of 10 mM using the BRAVO liquid handler (Agilent). Test compound CRCs were then transferred to daughter plates ([…]) using the Echo acoustic plate reformatter (Labcyte, Sunnyvale, Calif.) and then diluted into assay buffer (40 μL) to a 2× stock using a Thermo Fisher Combi (Thermo Fisher Scientific, Waltham, Mass.).
Calcium flux was measured using the Functional Drug Screening System (FDSS) 6000 (Hamamatsu Corporation, Tokyo, Japan) as an increase in the fluorescent static ratio. Compounds were applied to cells (20 μL, 2×) using the automated system of the FDSS 6000 at 4 s into the 300 s protocol and the data were collected at 1 Hz. At 144 s into the 300 s protocol, 10 μL of an EC20 concentration of the muscarinic receptor agonist acetylcholine was added (5×), followed by the addition of 12 μL an EC80 concentration of acetylcholine at the 230 s time point (5×). Agonist activity was analyzed as a concentration-dependent increase in calcium mobilization upon compound addition. Positive allosteric modulator activity was analyzed as a concentration-dependent increase in the EC20 acetylcholine response. Antagonist activity was analyzed as a concentration-dependent decrease in the EC80 acetylcholine response. Concentration-response curves were generated using a four-parameter logistical equation in XLFit curve fitting software (IDBS, Bridgewater, N.J.) for Excel (Microsoft, Redmond, Wash.) or Prism (GraphPad Software, Inc., San Diego, Calif.).
The calcium mobilization assay was also used to determine “efficacy”. […]

Compound	Emax	EC50
COc1cc2ccccc2n(Cc2ccc(-c3cnn(C)c3)cc2F)c1=O [Compound B1, 1-(2-fluoro-4-(1-methyl-1H-pyrazol-4-yl)benzyl)-3-methoxyquinolin-2(1H)-one]	31%	2.4 µM
Cn1cc(-c2ccc(Cn3cc(S(=O)(=O)CCNC(=O)c4cnccn4)c4c(F)cc(F)cc43)c(F)c2)cn1 [Compound B4, N-(2-((4,6-difluoro-1-(2-fluoro-4-(1-methyl-1H-pyrazol-4-yl)benzyl)-1H-indol-3-yl)sulfonyl)ethyl)pyrazine-2-carboxamide]	52%	3.4 µM
Cn1cc(-c2ccc(Cn3c(=O)ccc4ccccc43)c(F)c2)cn1 [Compound B6]	45%	3.6 µM
Cc1cc(NC(=O)c2cn(Cc3ccc(-c4cnn(C)c4)cc3F)c3ccccc23)no1 [Compound B8]	43%	5 µM
Cn1cc(-c2ccc(Cn3cc(C(=O)Nc4cccnc4)c4ccccc43)c(F)c2)cn1 [Compound B9, 1-(2-fluoro-4-(1-methyl-1H-pyrazol-4-yl)benzyl)-N-(pyridin-3-yl)-1H-indole-3-carboxamide]	50%	5.4 µM
Cn1cc(-c2ccc(Cn3cc(S(=O)(=O)CCNC(=O)c4ccnnc4)c4c(F)cc(F)cc43)c(F)c2)cn1 [Compound B11]	45%	7.6 µM
Cn1cc(-c2ccc(Cn3nc4ccccn4c3=O)c(F)c2)cn1 [Compound B13]	29%	9.4 µM
Cn1cc(-c2ccc(CN3C(=O)CSc4ccccc43)c(F)c2)cn1 [Compound B16, 4-(2-fluoro-4-(1-methyl-1H-pyrazol-4-yl)benzyl)-2H-benzo[b][1,4]thiazin-3(4H)-one]	32%	> 10 µM
Cn1cc(-c2ccc(CNc3ccccc3[S+](C)[O-])c(F)c2)cn1 (stereo not shown) [Compound B17]	39%	> 10 µM
Cn1cc(-c2ccc(CN3CC[S+]([O-])c4ccccc43)c(F)c2)cn1 (stereo not shown) [Compound B18]	31%	> 10 µM
Cn1cc(-c2ccc(CN3C(=O)NCc4ccccc43)c(F)c2)cn1 [Compound B19]	46%	> 10 µM
Cn1cc(-c2ccc(CN3C(=O)C[S+]([O-])c4ccccc43)c(F)c2)cn1 (stereo not shown) [Compound B20, 4-(2-fluoro-4-(1-methyl-1H-pyrazol-4-yl)benzyl)-2H-benzo[b][1,4]thiazin-3(4H)-one 1-oxide]	41%	> 10 µM
Cn1cc(-c2ccc(CN3C(=O)COc4ccccc43)c(F)c2)cn1 [Compound B23]	44%	> 10 µM
Cn1cc(-c2ccc(CN3CC(C(=O)O)c4ccccc43)c(F)c2)cn1 (stereo not shown) [Compound B25]	52%	> 10 µM
Cn1cc(-c2ccc(CN3Cc4ccccc4C3C(=O)O)c(F)c2)cn1 (stereo not shown) [Compound B26]	61%	> 10 µM
Cn1cc(-c2ccc(Cn3cc(C(=O)O)c4ccccc43)c(F)c2)cn1 [Compound B27]	48%	> 10 µM
Cn1cc(-c2ccc(Cn3cc(C(=O)NCCc4ccccn4)c4ccccc43)c(F)c2)cn1 [Compound B28]	35%	> 10 µM
Cn1cc(-c2ccc(Cn3cc(S(=O)(=O)CCNC(=O)c4ccccn4)c4c(F)cc(F)cc43)c(F)c2)cn1 [Compound B29]	34%	> 10 µM
Cn1cc(-c2ccc(Cn3cc(S(=O)(=O)CCNC(=O)c4ccncc4)c4c(F)cc(F)cc43)c(F)c2)cn1 [Compound B31]	30%	> 10 µM

Second part, the compound after the results:

Emax	EC50	Compound
27%	2.8 µM	Cn1cc(-c2ccc(Cn3cc(S(=O)(=O)CCNC(=O)c4ccno4)c4c(F)cc(F)cc43)c(F)c2)cn1 [Compound B2]
61%	3.1 µM	Cn1cc(-c2ccc(CN3C(=O)OCc4ccccc43)c(F)c2)cn1 [Compound B3, 1-(2-fluoro-4-(1-methyl-1H-pyrazol-4-yl)benzyl)-1H-benzo[d][1,3]oxazin-2(4H)-one]
38%	3.5 µM	Cn1cc(-c2ccc(CN3Cc4ccccc4C3)c(F)c2)cn1 [Compound B5]
64%	3.9 µM	Cn1cc(-c2ccc(Cn3cc(S(C)(=O)=O)c4ccccc43)c(F)c2)cn1 [Compound B7]
36%	5.6 µM	Cn1cc(-c2ccc(Cn3cc(S(=O)(=O)CCNC(=O)c4cccnn4)c4c(F)cc(F)cc43)c(F)c2)cn1 [Compound B10]
31%	8.1 µM	Cn1cc(-c2ccc(Cn3cc(S(=O)(=O)CCNC(=O)c4ccn[nH]4)c4c(F)cc(F)cc43)c(F)c2)cn1 [Compound B12]
45%	> 10 µM	Cn1cc(-c2ccc(Cn3c(=O)sc4ccccc43)c(F)c2)cn1 [Compound B14]
34%	> 10 µM	Cn1cc(-c2ccc(CNc3ccccc3S(C)(=O)=O)c(F)c2)cn1 [Compound B15]
36%	> 10 µM	Cn1cc(-c2ccc(CN3C(=O)CS(=O)(=O)c4ccccc43)c(F)c2)cn1 [Compound B21, 4-(2-fluoro-4-(1-methyl-1H-pyrazol-4-yl)benzyl)-2H-benzo[b][1,4]thiazin-3(4H)-one 1,1-dioxide]
44%	> 10 µM	Cn1cc(-c2ccc(CN3C(=O)CCc4ccccc43)c(F)c2)cn1 [Compound B22]
39%	> 10 µM	Cn1cc(-c2ccc(CN3c4ccccc4CS3(=O)=O)c(F)c2)cn1 [Compound B24, 1-(2-fluoro-4-(1-methyl-1H-pyrazol-4-yl)benzyl)-1,3-dihydrobenzo[c]isothiazole 2,2-dioxide]
35%	> 10 µM	Cn1cc(-c2ccc(Cn3cc(S(=O)(=O)CCNC(=O)c4cccc(F)c4)c4c(F)cc(F)cc43)c(F)c2)cn1 [Compound B30]
57%	> 10 µM	Cn1cc(-c2ccc(Cn3cc(S(=O)(=O)CCNC(=O)c4cocn4)c4c(F)cc(F)cc43)c(F)c2)cn1 [Compound B32]
